Here are results for ten compounds from ChEMBL document CHEMBL1201862, “PubChem BioAssay data set” (2004).

One may read the GI50 as the concentration that inhibits growth by half.

Some test systems named below: DLD-1; HCT-116; HCT-15; HT-29; K562; LXFL 529; NCI-H226; NCI-H460; OVCAR-4; SF-295; SNB-78; U-251; UACC-257; 786-0; OVCAR-3; DU-145; MCF7; PC-3; T47D.
Experiment in all cases: DTP human tumour cell line panel, 48 h

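Five concentrations, 48 hours, 96-well plates. GI50 is the concentration that inhibits growth by half.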 Activity calls are given as the source filed them. Cut-off read from the data, not from the text of the source: active = GI50 up to about 1.1 µM and inactive = higher.

With `Nc1nc(=O)[nH]c2c1cnn2Cc1ccccc1`, the GI50 in the test with DLD-1 is > 100 µM (inactive); in the test with HCT-116, > 100 µM (inactive); in the test on HCT-15, over 100 µM; with HT-29 it was > 100 µM (inactive); in the test on K562, > 100 µM (inactive); in the test with LXFL 529 it was > 100 µM (inactive). The GI50 in the test with NCI-H226 was 1.41 µM (inactive); in the test on NCI-H460, > 100 µM (inactive); in the test on OVCAR-4 it was > 100 µM (inactive); in the test with SF-295, > 100 µM (inactive); in the test on SNB-78, 1.46 µM (inactive); in the test on U-251, 1.4 µM (inactive). Further, in the test with UACC-257, the GI50 was > 100 µM (inactive).

As to `CC1=C(/C=C/C(C)=C/C=C/C(C)=C/C=C/C=C(C)/C=C/C=C(C)/C=C/C=C(C)/C=C/C=C(\C)C(=O)O)C(C)(C)CCC1`, the GI50 with 786-0 is > 100 µM (inactive); with DLD-1, > 100 µM (inactive); in the test on HCT-116, > 100 µM (inactive); in the test with HCT-15 it was over 100 µM; in the test with HT-29, > 100 µM (inactive); in the test on K562 it was > 100 µM (inactive). The GI50 in the test with LXFL 529, with NCI-H226, in the test on NCI-H460, in the test on OVCAR-3, in the test on OVCAR-4 and in the test with SF-295 was > 100 µM (inactive) throughout. Besides, the GI50 with SNB-78, with U-251 and in the test with UACC-257 was > 100 µM (inactive) throughout.

For the compound `C[C@]12CC[C@H](OC3CCCCO3)CC1=CC[C@@H]1C2CC[C@]2(C)/C(=N/O)CCC12` (stereo not given in full), the GI50 in the test with 786-0 was 20.4 µM (inactive); with DLD-1, 48.2 µM (inactive); in the test on HCT-116, 16.1 µM (inactive); in the test on HCT-15, 14.5 µM; in the test on HT-29 it was 12.3 µM (inactive); in the test on K562 it was 14.4 µM (inactive). Further, the GI50 is 16.6 µM (inactive) in the test on LXFL 529; 18.8 µM (inactive) with NCI-H460; 17 µM (inactive) with OVCAR-3; 16.4 µM (inactive) with OVCAR-4; 15.1 µM (inactive) in the test with SF-295; 20.7 µM (inactive) in the test with SNB-78. Besides, the GI50 is 19.6 µM (inactive) with U-251 and 30.3 µM (inactive) in the test on UACC-257.

Take `COc1cc2c(cc1-c1coc3cc(O)ccc3c1=O)OCO2` [CUNEATIN]: the GI50 with 786-0 is 15.7 µM (inactive); in the test with DU-145, 39.6 µM (inactive); with HCT-116, 18.7 µM (inactive); with HCT-15, 18.6 µM; in the test on HT-29 it was 99.3 µM (inactive); in the test on K562 it was > 100 µM (inactive). The GI50 in the test on MCF7 was 35.3 µM (inactive); with NCI-H226, 20.3 µM (inactive); with NCI-H460, 18.1 µM (inactive); with OVCAR-3, 32.6 µM (inactive); with OVCAR-4, 19.8 µM (inactive); in the test with PC-3, 43 µM (inactive). Further, the GI50 in the test with SF-295 was 20.4 µM (inactive); with T47D, 29.6 µM (inactive); in the test on U-251, 21.5 µM (inactive); with UACC-257, 26 µM (inactive).

As for `COc1nc(NC2OCC(OC(C)=O)C(OC(C)=O)C2OC(C)=O)c(/N=C(\C)C(C)=O)c(=O)n1C` (stereo not given), the GI50 was > 100 µM (inactive) in the test with DLD-1; > 100 µM (inactive) in the test on HCT-116; over 100 µM with HCT-15; > 100 µM (inactive) in the test on HT-29; > 100 µM (inactive) with K562; 0.63 µM (active) in the test on NCI-H226. Moreover, the GI50 in the test on NCI-H460, with OVCAR-4, in the test with SF-295, with SNB-78, in the test with U-251 and with UACC-257 was > 100 µM (inactive) each time.

Take `COc1ccc(C2CC(=O)CC(c3ccc(OC)cc3)C23C(=O)NC(=S)NC3=O)cc1` (stereo not given): the GI50 is > 100 µM (inactive) with 786-0; > 100 µM (inactive) in the test with DU-145; > 100 µM (inactive) in the test on HCT-116; over 100 µM in the test on HCT-15; > 100 µM (inactive) in the test on HT-29; > 100 µM (inactive) with K562. For the same compound, the GI50 with MCF7, with NCI-H226, in the test on NCI-H460, with OVCAR-3, in the test with OVCAR-4 and in the test on PC-3 was > 100 µM (inactive) each time. Further, the GI50 with SF-295, in the test with T47D, in the test on U-251 and in the test on UACC-257 was > 100 µM (inactive) in each case.

As for `CCOC(=O)Cn1c(=O)c2cc(-c3ccccc3)cc3c(Cl)nc4c(OC)c(OC)cc1c4c32`, the GI50 was 14.8 µM (inactive) in the test on 786-0; 21.4 µM (inactive) in the test with DU-145; 13.9 µM (inactive) in the test on HCT-116; 15 µM in the test with HCT-15; 13.8 µM (inactive) with HT-29; 13.8 µM (inactive) in the test on K562. Also, the GI50 with MCF7 is 9.14 µM (inactive); with NCI-H226 it was > 39.6 µM (inactive); in the test with NCI-H460 it was 17.1 µM (inactive); in the test on OVCAR-3, 20.9 µM (inactive); in the test on OVCAR-4, 21.6 µM (inactive); in the test with PC-3, 15.9 µM (inactive). Besides, the GI50 was 40.7 µM (inactive) in the test with SF-295, 16 µM (inactive) in the test on T47D, 31.2 µM (inactive) with U-251 and 18.6 µM (inactive) with UACC-257.

On to `COC(=O)[C@H](Cc1ccccc1)NC(=O)OCC1OC(n2cc(C)c(=O)[nH]c2=O)CC1N=[N+]=[N-]` (stereo not given in full), for which the GI50 is > 100 µM (inactive) in the test with 786-0; > 100 µM (inactive) in the test with DU-145; > 100 µM (inactive) in the test on HCT-116; over 100 µM with HCT-15; > 100 µM (inactive) in the test with HT-29; > 100 µM (inactive) with K562. Moreover, the GI50 in the test on MCF7, in the test on NCI-H226, in the test on NCI-H460, in the test with OVCAR-3, in the test on OVCAR-4 and with PC-3 was > 100 µM (inactive) throughout. Further, the GI50 with SF-295, with T47D, in the test with U-251 and in the test on UACC-257 was > 100 µM (inactive) in each case.

Take `COc1ccccc1/C=C\c1cnnc2ccccc12`: the GI50 in the test on 786-0 is > 10 µM (inactive); in the test on DU-145 it was > 10 µM (inactive); with HCT-116 it was 5.77 µM (inactive); in the test with HCT-15, over 10 µM; in the test with HT-29, 3.77 µM (inactive); with K562 it was 4.7 µM (inactive). Further, the GI50 is 3.56 µM (inactive) with MCF7; > 10 µM (inactive) with NCI-H226; > 10 µM (inactive) in the test with NCI-H460; > 10 µM (inactive) with OVCAR-3; > 10 µM (inactive) in the test with OVCAR-4; > 10 µM (inactive) with PC-3. For the same compound, the GI50 with SF-295, with T47D, with U-251 and in the test with UACC-257 was > 10 µM (inactive) each time.

For `COc1ccccc1NC(=S)N/N=C1\C(=O)Nc2ccccc21`, the GI50 was > 100 µM (inactive) with 786-0; 0.762 µM (active) with DU-145; > 100 µM (inactive) with HCT-116; over 100 µM in the test with HCT-15; > 100 µM (inactive) in the test with HT-29; > 100 µM (inactive) in the test with K562. Besides, the GI50 in the test with MCF7 was 42.6 µM (inactive); with NCI-H226, > 100 µM (inactive); in the test on NCI-H460 it was > 100 µM (inactive); with OVCAR-3, 57.7 µM (inactive); with OVCAR-4, > 100 µM (inactive); in the test on PC-3 it was > 100 µM (inactive). In addition, the GI50 with SF-295, in the test with T47D, in the test on U-251 and in the test with UACC-257 was > 100 µM (inactive) each time.
